Measured values taken from US20130303509A1, “NAMPT INHIBITORS” (AbbVie Inc., priority 2012, published 2013).

Each compound was assayed on PC3 cells (assay: NAMPT Cell Proliferation Assay). Conditions: Homo sapiens, PC-3, 120 h, 5 days incubation, cell viability by Cell Titer Glo.
Assay type: cell-based
In short: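 Seeded at 500 cells/well in RPMI with 10% heat-inactivated FBS and left to attach overnight at 37° C, 5% CO2. Compounds were added as 10-fold dilutions […] for 5 days, then viability was read by CellTiter-Glo. IC50s came from sigmoidal fits of percent inhibition.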

SMILES | IC50
O=C(Nc1ccc(O[C@@H]2CCN(C(=O)c3ccsc3)C2)cc1)C1CN(c2ccnnc2)C1 [Example 448, 1-(pyridazin-4-yl)-N-(4-{[(3R)-1-(thiophen-3-ylcarbonyl)pyrrolidin-3-yl]oxy}phenyl)azetidine-3-carboxamide] | 9.32 nM
O=C(Nc1ccc(OC2CCN(C(=O)CC3CCOCC3)CC2)cc1)[C@H]1CCN(c2cccnc2)C1 [Example 11, (3S)-1-(pyridin-3-yl)-N-(4-{[1-(tetrahydro-2H-pyran-4-ylacetyl)piperidin-4-yl]oxy}phenyl)pyrrolidine-3-carboxamide] | 22.7 nM
O=C(Nc1ccc(OC2CCN(C(=O)c3cccs3)CC2)cc1)C1CN(c2cccnn2)C1 [Example 249, 1-(pyridazin-3-yl)-N-(4-{[1-(thiophen-2-ylcarbonyl)piperidin-4-yl]oxy}phenyl)azetidine-3-carboxamide] | 2.35 nM
O=C(Nc1ccc(O[C@@H]2CCN(C(=O)c3ccc(C(F)(F)F)cc3)C2)cc1)C1CN(c2ccnnc2)C1 [Example 475, 1-(pyridazin-4-yl)-N-[4-({(3R)-1-[4-(trifluoromethyl)benzoyl]pyrrolidin-3-yl}oxy)phenyl]azetidine-3-carboxamide] | 594 nM
CC1CC1C(=O)N1CCC(Oc2ccc(NC(=O)C3CN(c4cccnc4)C3)cc2)CC1 (stereo not shown) [Example 35, N-[4-({1-[(2-methylcyclopropyl)carbonyl]piperidin-4-yl}oxy)phenyl]-1-(pyridin-3-yl)azetidine-3-carboxamide] | 6.92 nM
O=C(Nc1ccc(OC2CCN(C(=O)C3CCOCC3)CC2)cc1)C1CN(c2ccnnc2)C1 [Example 306, 1-(pyridazin-4-yl)-N-(4-{[1-(tetrahydro-2H-pyran-4-ylcarbonyl)piperidin-4-yl]oxy}phenyl)azetidine-3-carboxamide] | 34.7 nM
O=C(Nc1ccc(O[C@@H]2CCN(C(=O)Cc3ccc(F)cc3)C2)cc1)C1CN(c2ccnnc2)C1 [Example 449, N-[4-({(3R)-1-[(4-fluorophenyl)acetyl]pyrrolidin-3-yl}oxy)phenyl]-1-(pyridazin-4-yl)azetidine-3-carboxamide] | 678 nM
O=C(Nc1ccc(OC2CCN(C(=O)CC3CCCCC3)CC2)cc1)C1CN(c2cccnc2)C1 [Example 50, N-(4-{[1-(cyclohexylacetyl)piperidin-4-yl]oxy}phenyl)-1-(pyridin-3-yl)azetidine-3-carboxamide] | 8.95 nM
O=C(Nc1ccc(OC2CCN(C(=O)c3ccccc3Cl)CC2)cc1)C1CN(c2cccnn2)C1 [Example 211, N-(4-{[1-(2-chlorobenzoyl)piperidin-4-yl]oxy}phenyl)-1-(pyridazin-3-yl)azetidine-3-carboxamide] | 5.94 nM
O=C(Nc1ccc(C2CCN(C(=O)c3cc(C(F)(F)F)ccc3Cl)CC2)cc1)[C@H]1CCN(c2cccnn2)C1 [Example 690, (3S)-N-(4-{1-[2-chloro-5-(trifluoromethyl)benzoyl]piperidin-4-yl}phenyl)-1-(pyridazin-3-yl)pyrrolidine-3-carboxamide] | 3.14 nM
CC(C)(N)C(=O)N1CCC(c2ccc(NC(=O)C3CN(c4cccnc4)C3)cc2)CC1 [Example 602, N-{4-[1-(2-methylalanyl)piperidin-4-yl]phenyl}-1-(pyridin-3-yl)azetidine-3-carboxamide] | 2 nM
O=C(Nc1ccc(C2CCN(C(=O)c3ccc(Cl)cc3Cl)CC2)cc1)[C@H]1CCN(c2cccnn2)C1 [Example 674, (3S)-N-{4-[1-(2,4-dichlorobenzoyl)piperidin-4-yl]phenyl}-1-(pyridazin-3-yl)pyrrolidine-3-carboxamide] | 5.72 nM

More lines, in order of falling IC50, values ahead:

IC50 | SMILES
1010 nM | Cc1ncccc1N1CC(C(=O)Nc2ccc(C3CCN(C(=O)CCN(C)C)CC3)cc2)C1 [Example 168, N-{4-[1-(N,N-dimethyl-beta-alanyl)piperidin-4-yl]phenyl}-1-(2-methylpyridin-3-yl)azetidine-3-carboxamide]
168 nM | O=C(Nc1ccc(OC2CN(C(=O)C3CCC(F)(F)CC3)C2)cc1)C1CN(c2ccnnc2)C1 [Example 202, N-[4-({1-[(4,4-difluorocyclohexyl)carbonyl]azetidin-3-yl}oxy)phenyl]-1-(pyridazin-4-yl)azetidine-3-carboxamide]
119 nM | O=C(Nc1ccc(OC2CN(C(=O)C3CCCO3)C2)cc1)C1CN(c2ccnnc2)C1 (stereo not shown) [Example 262, 1-(pyridazin-4-yl)-N-(4-{[1-(tetrahydrofuran-2-ylcarbonyl)azetidin-3-yl]oxy}phenyl)azetidine-3-carboxamide]
71.5 nM | O=C(Nc1ccc(OC2CN(C(=O)C3CCC3)C2)cc1)C1CN(c2ccnnc2)C1 [Example 261, N-(4-{[1-(cyclobutylcarbonyl)azetidin-3-yl]oxy}phenyl)-1-(pyridazin-4-yl)azetidine-3-carboxamide]
70.9 nM | O=C(Nc1ccc(C2CCN(C(=O)CC3CCOCC3)CC2)cc1)C1CN(c2ccnnc2)C1 [Example 145, 1-(pyridazin-4-yl)-N-{4-[1-(tetrahydro-2H-pyran-4-ylacetyl)piperidin-4-yl]phenyl}azetidine-3-carboxamide]
62.7 nM | CC(=O)N1CCC(C(=O)N2CCC(c3ccc(NC(=O)C4CN(c5cccnn5)C4)cc3)CC2)CC1 [Example 383, N-(4-{1-[(1-acetylpiperidin-4-yl)carbonyl]piperidin-4-yl}phenyl)-1-(pyridazin-3-yl)azetidine-3-carboxamide]
53.6 nM | CC(C)CCC(=O)N1CCC(S(=O)(=O)c2ccc(NC(=O)C3CN(c4cccnn4)C3)cc2)CC1 [Example 612, N-(4-{[1-(4-methylpentanoyl)piperidin-4-yl]sulfonyl}phenyl)-1-(pyridazin-3-yl)azetidine-3-carboxamide]
9.79 nM | O=C(Nc1ccc(C2CCN(C(=O)c3ccc(C(F)(F)F)cc3)CC2)cc1)C1CN(c2cccnn2)C1 [Example 355, 1-(pyridazin-3-yl)-N-(4-{1-[4-(trifluoromethyl)benzoyl]piperidin-4-yl}phenyl)azetidine-3-carboxamide]
7.58 nM | CC1(C(=O)N2CCC(c3ccc(NC(=O)C4CN(c5cccnn5)C4)c(F)c3)CC2)CC1 [Example 861, N-(2-fluoro-4-{1-[(1-methylcyclopropyl)carbonyl]piperidin-4-yl}phenyl)-1-(pyridazin-3-yl)azetidine-3-carboxamide]
7.25 nM | Cc1ccccc1C(=O)N1CCC(c2ccc(NC(=O)C3CN(c4cccnn4)C3)c(F)c2)CC1 [Example 831, N-{2-fluoro-4-[1-(2-methylbenzoyl)piperidin-4-yl]phenyl}-1-(pyridazin-3-yl)azetidine-3-carboxamide]
6.9 nM | CC(C)(O)C(=O)N1CCC(Oc2ccc(NC(=O)C3CN(c4cccnc4)C3)cc2)CC1 [Example 31, N-(4-{[1-(2-hydroxy-2-methylpropanoyl)piperidin-4-yl]oxy}phenyl)-1-(pyridin-3-yl)azetidine-3-carboxamide]
6.83 nM | Cc1ccc(C(=O)N2CCC(c3ccc(NC(=O)C4CN(c5cccnn5)C4)cc3)CC2)cc1 [Example 441, N-{4-[1-(4-methylbenzoyl)piperidin-4-yl]phenyl}-1-(pyridazin-3-yl)azetidine-3-carboxamide]
3.2 nM | CC(C)(C)C(=O)N1CCC(c2ccc(NC(=O)C3CN(c4ccnnc4)C3)c(F)c2)CC1 [Example 870, N-{4-[1-(2,2-dimethylpropanoyl)piperidin-4-yl]-2-fluorophenyl}-1-(pyridazin-4-yl)azetidine-3-carboxamide]
